Experimental data published in PMC3774728, “Identification of the Plant Compound Geraniin as a Novel Hsp90 Inhibitor” (PLoS ONE, 2013).

Experiments:
[1] = molecular target: T1, Hsp90α ATPase activity (Homo sapiens, UniProt P07900); assay: ATP hydrolysis inhibition (ADP Hunter Plus assay); type: biochemical; settings: 40 nM Hsp90α, 100 µM ATP, 60 min, 40°C
T1 construct: purchased Assay Designs (Ann Arbor, MI, USA)
Protocol: The assay was performed using the Discover RX ADP HunterTM Plus Assay kit, following the manufacturer’s instructions. ATPase reactions were carried out for 60 min at 40°C temperature in 100 mM Tris pH 7.4, 100 µM ATP and 40 nM Hsp90α in the presence of different concentrations of geraniin or 17-AAG. ADP generation was measured using a Perkin Elmer LS 55 fluorimeter (540 nm excitation and 620 nm emission). Fluorescence intensity values measured for Hsp90α without any compound were set at 100% of enzyme activity. The background reaction rate was measured in a reaction lacking enzyme or substrate and subtracted from the experimental rates.
Figure 3 Inhibition of Hsp90α activity. ATPase activity of the chaperone was evaluated in the presence of different concentrations of geraniin, 17-AAG and HA (A). Data are reported as the residual ATPase activity (%) compared to that observed for an untreated sample. Data are the mean of three independent experiments performed in triplicate and were analyzed by t test (HA vs testing compounds): The error bar represents the standard deviation of nine measurements, while * indicates significance at P<0.01. Aggregation kinetics of citrate synthase (CS) at 43°C determined by light scattering (B). […]

[2] = tested on: Jurkat cells; assay: MTT cell viability, Jurkat; type: cell-based, human; settings: Homo sapiens, 24 h
Protocol: (§1) To ensure logarithmic growth, cells were subcultured every two days. As control cells, human peripheral blood mononuclear cells (PBMC) were isolated from buffy coats of healthy donors (kindly provided by the Blood Center of the Hospital of Battipaglia, Salerno, Italy) by using standard Ficoll−Hypaque gradients. […] Proliferation of PBMC was induced by phytohemagglutinin (PHA) (10 µg mL^−1). Tumor and PBMC cells were treated with different concentrations of geraniin or 17-AAG to evaluate their cytotoxic effects. Stock solutions of geraniin (50 mM in DMSO) and 17-AAG (10 mM in DMSO) were stored a −20°C in the dark and diluted just before addition to the sterile culture medium. In all the experiments, the final concentration of DMSO was 0.10% (v/v).
Jurkat (2×10^4/well) and HeLa (5000/well) cells were seeded in triplicate in 96 well−plates and incubated for 24 h in the absence or presence of different concentrations of geraniin (between 0,5 µM to 50 µM) or 17-AAG (between 0,5 nM to 10 µM).
The number of viable cells was determined by using a [3–4,5-dimethyldiazol-2-yl]-2,5-diphenyl tetrazolium bromide (MTT, Sigma-Aldrich) conversion assay, according to the method described by Mosmann. […] The absorbance was measured with a microplate reader (Titertek multiskan MCC7340, LabSystems, Vienna, VA, USA) equipped with a 620 nm filter. […]

[3] = tested on: HeLa cells; assay: Cell cycle and hypodiploidy by flow cytometry (PI), HeLa; type: cell-based, human; settings: 24 h, geraniin 5 µM, 17-AAG 0.2 µM
Protocol: (§2) Cell DNA content was measured by propidium iodide (PI) incorporation into permeabilized cells, as described by Nicoletti et al.. Briefly, the cells were harvested after geraniin or 17-AAG treatments were washed with cold PBS and incubated with a PI solution (0.1% sodium citrate, 0.1% Triton X-100 and 50 µg mL^−1 of prodium iodide, Sigma-Aldrich, 10 µg/ml Rnase A) for 30 min at room temperature. Data from 10.000 events per sample were collected by a FACScalibur flow cytometer (Becton Dickinson, San José, CA) and cellular debris was excluded from analysis by raising the forward scatter threshold. The percentage of cells in the sub G0/G1 phase, apoptotic fraction, was quantified using CellQuest software (Becton Dickinson). The distribution of cells in G0/G1, S, G2/M phases was determined using ModFit LT cell cycle analysis software (Becton Dickinson). Results were expressed as a mean ± SD of three experiments performed in triplicate.
(§3) Figure 6 Effects of geraniin and 17-AAG on cell cycle progression. Percentage of cell cycle stages was analyzed by flow cytometry, (A) PI-stained viable Jurkat cells treated with DMSO, 0.7 µM geraniin or 10 µM 17-AAG for 24 h.

[4] = tested on: PBMC (human Peripheral Blood Mononuclear Cells); assay: Cytotoxicity in PHA-stimulated proliferating PBMC; type: cell-based; settings: 24 h, trypan blue, only at high doses
Protocol: as §1, with “Tumor and PBMC cells were treated with different concentrations of geraniin or 17-AAG to evaluate their cytotoxic effects.” left out
The number of viable cells was determined by using a [3–4,5-dimethyldiazol-2-yl]-2,5-diphenyl tetrazolium bromide (MTT, Sigma-Aldrich) conversion assay, according to the method described by Mosmann. Briefly, following the treatment, 25 µL of MTT (5 mg/mL in PBS) was added and the cells were incubated for additional 3 h at 37°C. Thereafter, cells were lysed and suspended with 100 µL of buffer containing 50% (v/v) N,N-dimethylformamide, 20% SDS (pH 4.5). The absorbance was measured with a microplate reader (Titertek multiskan MCC7340, LabSystems, Vienna, VA, USA) equipped with a 620 nm filter. Cell population growth inhibition was tested by cytometric counting (trypan blu exclusion).

[5] = tested on: Jurkat cells; assay: Cell cycle and hypodiploidy by flow cytometry (PI), Jurkat; type: cell-based, human; settings: 24 h, geraniin 0.7 µM, 17-AAG 10 µM
Protocol: as §2, §3

O=C1O[C@H]2[C@@H]3OC(=O)c4cc(O)c(O)c(O)c4-c4c(cc(O)c(O)c4O)C(=O)OC[C@H]2O[C@@H](OC(=O)c2cc(O)c(O)c(O)c2)[C@@H]3OC(=O)c2cc(O)c(O)c3c2[C@@H]2C1=CC(=O)[C@](O)(O3)C2(O)O [Compound 54, geraniin]
Hsp90α ATPase activity inhibition [1]: inhibit Hsp90α ATPase activity in a dose−dependent manner | IC50 [2]: 760 ± 100 nM | cell cycle arrest [3]: G2/M arrest | percentage of cells with hypodiploid nuclei [3]: 16.2±0.7% | cytotoxic effects in control PBMC [4]: Minimal cytotoxic effects | cell cycle arrest [5]: G2/M arrest | percentage of cells with hypodiploid nuclei [5]: 9.75±1.02%
